Reference: article PMC6559944 (Journal of medicinal chemistry, 2019)
“Also recorded” adds a separate entry of the source. Read-outs that look alike come from different tables or passages of the source.

Experiments:
[1] = test system: human ether-á-go-go related gene (hERG); details: cited from earlier work
[2] = mice, 25 mg/kg PO, feces collected 24 h
[3] = test system: Nluc-expressing C. parvum; details: for Efficacy (reduction in oocyst shedding / infection), in words: oral, 5 days, doses of Table 3
[4] = mouse, in vivo, 25 mg/kg; for Half Life: po
[5] = rat
[6] = mouse, in vivo
[7] = test system: human cell lines
[8] = mouse, in vivo; remark: listed apart in the source
[9] = IFN-γ KO mice, 60 mg/kg QD for 5 days

CCOc1ccc2cc(-c3nn(CC4CCN(C)CC4)c4ncnc(N)c34)ccc2c1 [BKI 1294]
hERG activity in vitro [1]: has shown activity against the human ether-á-go-go related gene (hERG) in vitro

CCOc1ccc2cc(-c3nn(CC4CC4)c(N)c3C(N)=O)ccc2c1 [Compound 27, 5-amino-1-(cyclopropylmethyl)-3-(6-ethoxynaphthalen-2-yl)-1H-pyrazole-4-carboxamide]
Fecal concentration from 25 mg/kg dose [2]: 54 µM | Efficacy (reduction in oocyst shedding / infection), in words ([3]; IFN-γ KO mice): Failed efficacy

CCOc1ccc2cc(-c3nn(C(C)CCO)c(N)c3C(N)=O)ccc2c1 (centres unmarked) [Compound 9, 5-amino-3-(6-ethoxynaphthalen-2-yl)-1-(4-hydroxybutan-2-yl)-1H-pyrazole-4-carboxamide]
Efficacy in words ([3]; IFN-γ KO mice, 30 mg/kg BID for 5 days): remain a full log above the LLOD | Efficacy in words [3, 9]: efficacious | Efficacy (reduction in oocyst shedding / infection), in words ([3]; IFN-γ KO mice): significant reduction in oocyst shedding

5-amino-3-(2-cyclopropoxyquinolin-6-yl)-1-(4-hydroxybutan-2-yl)-1H-pyrazole-4-carboxamide [Compound 10]
Oral Clearance [4]: 0.1 mL/min | Half Life [4]: 2.047 h | Fecal concentration from 25 mg/kg dose [2]: 4.5 µM

CC(C)(CO)n1nc(-c2ccc3cc(OC4CC4)ccc3c2)c(C(N)=O)c1N [Compound 24, 5-amino-3-(6-cyclopropoxynaphthalen-2-yl)-1-(1-hydroxy-2-methylpropan-2-yl)-1H-pyrazole-4-carboxamide]
Fecal concentration from 25 mg/kg dose [2]: 3.5 µM | Efficacy (reduction in oocyst shedding / infection), in words ([3]; IFN-γ KO mice): significant reduction in oocyst shedding | Liabilities: in vivo cardiovascular [5]: In vivo cardiovascular liabilities (data not shown)

CCOc1ccc2cc(-c3nn(CC(C)(C)CO)c(N)c3C(N)=O)ccc2c1 [Compound 3, 5-amino-3-(6-ethoxynaphthalen-2-yl)-1-(3-hydroxy-2,2-dimethylpropyl)-1H-pyraz-+ole-4-carboxamide]
Fecal concentration from 25 mg/kg dose [2]: 7.6 µM | Efficacy (reduction in oocyst shedding / infection), in words ([3]; IFN-γ KO mice): failed to reduce infection; also recorded: Failed efficacy, low c-Src IC50

CCOc1ccc2cc(-c3nn(C(C)(C)CO)c(N)c3C(N)=O)ccc2n1 [Compound 20, 5-amino-3-(2-ethoxyquinolin-6-yl)-1-(1-hydroxy-2-methylpropan-2-yl)-1H-pyrazole-4-carboxamide]
Fecal concentration from 25 mg/kg dose [2]: 0.41 µM | Efficacy in words ([3]; IFN-γ KO mice, 10 mg/kg BID): failed to provide a significant reduction from initial infection levels | Efficacy in words ([3]; IFN-γ KO mice, 20 mg/kg BID): failed to provide a significant reduction from initial infection levels | Efficacy in words [3, 9]: efficacious to the LLOD | Efficacy (reduction in oocyst shedding / infection), in words ([3]; IFN-γ KO mice): significant reduction in oocyst shedding

5-amino-3-(7-cyclopropoxyquinolin-3-yl)-1-(4-hydroxybutan-2-yl)-1H-pyrazole-4-carboxamide [Compound 11]
Oral Clearance [4]: 0.7 mL/min | Half Life [4]: 1.42 h | Efficacy (reduction in oocyst shedding / infection), in words ([3]; IFN-γ KO mice): significant reduction in oocyst shedding

CC(CCO)n1nc(-c2ccc3cc(OC4CC4)ccc3c2)c(C(N)=O)c1N (centres unmarked) [Compound 12, 5-amino-3-(6-cyclopropoxynaphthalen-2-yl)-1-(4-hydroxybutan-2-yl)-1H-pyrazole-4-carboxamide]
Fecal concentration from 25 mg/kg dose [2]: 10.3 µM | Liabilities: toxicity during efficacy study ([3]; IFN-γ KO mice efficacy study): Signs of toxicity during efficacy

CCOc1ccc2cc(-c3nn(C(C)(C)CCO)c(N)c3C(N)=O)ccc2c1 [Compound 15, 5-amino-3-(6-ethoxynaphthalen-2-yl)-1-(4-hydroxy-2-methylbutan-2-yl)-1H-pyrazole-4-carboxamide]
Efficacy in words ([3]; IFN-γ KO mice, 5 mg/kg BID for 5 days): failed to provide an efficacious result | Efficacy in words ([3]; IFN-γ KO mice, 15 mg/kg BID for 5 days): failed to provide an efficacious result | Efficacy in words ([3]; IFN-γ KO mice, 30 mg/kg BID for 5 days, 30 mg/kg): efficacious; also recorded: reductions to below the LLOD | Log reduction (to below the LLOD) ([3]; IFN-γ KO mice, 60 mg/kg BID for 5 days): 4 log | Efficacy in words [3, 9]: failed to provide an efficacious result | Efficacy in words ([3]; IFN-γ KO mice, 120 mg/kg QD for 5 days): reductions to below the LLOD | Efficacy (reduction in oocyst shedding / infection), in words ([3]; IFN-γ KO mice): significant reduction in oocyst shedding | CBC and serum chemistry results [6]: within the normal range | Histological analysis of all major organs [6]: no abnormalities | Observable signs of toxicity ([6]; 150 mg/kg): Neither dose concentration showed any observable signs of toxicity | Toxicity to human cell lines [7]: not toxic to a variety of human cell lines

CCOc1ccc2cc(-c3nn(C(C)(C)CO)c(N)c3C(N)=O)cnc2c1 [Compound 19, 5-amino-3-(7-ethoxyquinolin-3-yl)-1-(1-hydroxy-2-methylpropan-2-yl)-1H-pyrazole-4-carboxamide]
Fecal concentration from 25 mg/kg dose [2]: 2.9 µM

CCOc1ccc2cc(-c3nn(C(C)(C)CO)c(N)c3C(N)=O)ccc2c1 [Compound 21, 5-amino-3-(6-ethoxynaphthalen-2-yl)-1-(1-hydroxy-2-methylpropan-2-yl)-1H-pyrazole-4-carboxamide]
Fecal concentration from 25 mg/kg dose [2]: 7.1 µM | Efficacy (reduction in oocyst shedding / infection), in words ([3]; IFN-γ KO mice): failed to reduce infection; also recorded: Failed efficacy

CCOc1ccc2cc(-c3nn(C(C)CCO)c(N)c3C(N)=O)cnc2c1 (centres unmarked) [Compound 7, 5-amino-3-(7-ethoxyquinolin-3-yl)-1-(4-hydroxybutan-2-yl)-1H-pyrazole-4-carboxamide]
Fecal concentration from 25 mg/kg dose [2]: 1.1 µM | Efficacy (reduction in oocyst shedding / infection), in words ([3]; IFN-γ KO mice): significant reduction in oocyst shedding

CC(C)(C)n1nc(-c2ccc3cc(OC4CC4)ccc3c2)c(C(N)=O)c1N [Compound 25, 5-amino-1-(tert-butyl)-3-(6-cyclopropoxynaphthalen-2-yl)-1H-pyrazole-4-carboxamide]
Fecal concentration from 25 mg/kg dose [2]: 0.42 µM | Efficacy in words ([3]; IFN-γ KO mice, 15 mg/kg QD for 5 days): failed to reduce infections from their initial levels | Efficacy in words ([3]; IFN-γ KO mice, 30 mg/kg QD for 5 days): reduced infection to below the LLOD | Efficacy in words [3, 9]: efficacious | Efficacy (reduction in oocyst shedding / infection), in words ([3]; IFN-γ KO mice): efficacious | CBC and serum chemistry results [6]: within the normal range | Histological analysis of all major organs [6]: no abnormalities | Observable signs of toxicity ([6]; 100 mg/kg): No signs of toxicity were observed | Observable signs of toxicity ([6]; 250 mg/kg): Minor signs of toxicity | Plasma Concentration ([8]; 100 mg/kg): 19.9 ± 5.4 µM | Plasma Concentration ([8]; 100 mg/kg, 2 h): 49.2 ± 4.7 µM | Plasma Concentration ([8]; 250 mg/kg): 36.1 ± 16.7 µM

CCOc1ccc2cc(-c3nn(C(C)(C)C)c(N)c3C(N)=O)cnc2c1 [BKI 1517]
hERG inhibition signal in vitro [1]: did not have significant in vitro hERG inhibition signal
